From patent US20220204473A1, “COMPOUND AS IRAK INHIBITOR” (SHANGHAI MEIYUE BIOTECH DEVELOPMENT CO., LTD., priority 2018, published 2022)
Where two headings read alike, the source gives them in different places.

How the values were obtained:
[1] = system: cytokine TNF-α in LPS-induced human PBMCs; experiment: Inhibition of cytokine TNF-α in LPS-induced human PBMC (ELISA); assay type: cell-based; conditions: 0.1 μg/mL LPS for 4 h
Method: Procedures: Cytokine production in human PBMCs (peripheral blood mononuclear cells) was induced by LPS (lipopolysaccharide) in vitro, and the inhibitory effect of the compounds on induced cytokine production in human PBMCs was investigated.
Fresh human PBMC was centrifuged for 10 min at room temperature at 450×g and the supernatant was discarded. The PBMC was resuspended in complete RPMI 1640 medium.
The assay was performed in complete medium. PBMC was seeded at a density of 1×10^5 cells/well into a 96-well plate. The compounds according to the present disclosure were serially diluted in an isotonic 100% DMSO solution to 8 concentrations from 20 μM to 0.002 nM respectively, with the final DMSO concentration being 0.25%. Cells were pre-incubated with the formulated compounds for 30 min at 37° C. prior to stimulation. To induce cytokine secretion, cells were stimulated with 0.1 μg/mL LPS (Sigma, Escherichia coli O111:B4) for 4 h at 37° C. The cell culture supernatant was then separated by centrifugation at 450×g for 10 min at room temperature.
The amount of secreted TNF-α in the supernatants was determined using the human TNF-α ELISA kit according to the manufacturer's instruction.
The readings of absorbance at A450 were measured with a microplate reader SpectraMax i3x (Molecular Device) for calculating the inhibition of the compounds, and IC50 values were calculated with GraphPad Prism 7.0 software respectively.

[2] = PK assay in rat (intravenous injection and oral gavage); assay type: in vivo; conditions: plasma, male SD rat; for Cmax: read-out: Peak concentration Cmax; for AUC(0-t): read-out: Area under curve AUC0-t; for AUC(0-inf): read-out: Area under curve AUC0-∞; for MRT: read-out: Average retention time MRT; for clearance: read-out: Clearance CL; for half-life: read-out: Half life t1/2 (converted); for Vd: read-out: Volume of distribution at steady state VZ; for bioavailability: read-out: Bioavailability F; for Tmax: read-out: Time to peak tmax
Method: The rats used for pharmacokinetic study in the example were male SPF-grade SD rats (B&K Universal, Shanghai).
Route of administration: a single dose by oral gavage or intravenous injection
Sampling points: 0.083 h, 0.25 h, 0.5 h, 1 h, 2 h, 4 h, 6 h, 8 h and 24 h after administration
Sample processing: 0.2 mL of venous blood was collected, and let stand on ice before centrifugation to separate plasma (centrifugation conditions: 8000 rpm, 6 min, 4° C.). The separated plasma was stored at −80° C. before analysis.
Internal standard working solution: An appropriate amount of tolbutamide internal standard stock solution at 645,000 ng/mL was added into a volumetric flask, and was diluted to the volume with methanol. The solution was well mixed to give an internal standard working solution with a concentration of 50 ng/mL.
Sample pretreatment: 50 μL of plasma was added into a 1.5-mL centrifuge tube, and added with 250 μL of internal standard solution (methanol of the same volume for the blank control). The solution was well mixed by vortex, and centrifuged for 5 min at 14000 rpm. 200 μL of the supernatant was transferred into a 96-well sample feeding plate, and loaded onto a LC-MS/MS system.
Column: ACQUITY UPLC BEH C18 1.7 μm (50 mm×2.10 mm)
Mobile phase: A: 0.1% aqueous formic acid; B: 0.1% formic acid in acetonitrile
The data processing system was Analyst software (Applied Biosystems, USA, ver 1.5.5).

CYP1A2 = target: T1, CYP1A2 (Homo sapiens, UniProt P05177); experiment: CYP450 inhibition in human liver microsomes, CYP1A2; assay type: in vitro ADME; conditions: human liver microsomes, probe phenacetin; read-out: IC50, subtype 1A2
T1 construct: tissue Corning (USA); host or cells: mixed human liver microsomes
T1 sequence (P05177 1-516): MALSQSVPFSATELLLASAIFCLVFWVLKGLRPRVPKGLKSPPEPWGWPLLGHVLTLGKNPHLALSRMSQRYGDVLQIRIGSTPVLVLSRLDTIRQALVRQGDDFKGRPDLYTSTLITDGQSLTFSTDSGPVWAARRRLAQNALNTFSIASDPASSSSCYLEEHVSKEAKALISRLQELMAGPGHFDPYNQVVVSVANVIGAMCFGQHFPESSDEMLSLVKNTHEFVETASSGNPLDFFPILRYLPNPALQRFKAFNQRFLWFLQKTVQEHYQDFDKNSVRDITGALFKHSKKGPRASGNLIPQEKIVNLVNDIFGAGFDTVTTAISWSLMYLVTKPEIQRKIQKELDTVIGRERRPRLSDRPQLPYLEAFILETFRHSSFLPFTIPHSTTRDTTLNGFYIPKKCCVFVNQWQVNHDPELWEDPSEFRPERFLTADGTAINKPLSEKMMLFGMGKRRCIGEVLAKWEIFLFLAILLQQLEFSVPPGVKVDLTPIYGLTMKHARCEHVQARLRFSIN
Method: (§1) This study was intended to investigate the inhibitory effect of the test compounds on five major CYP450 enzyme subtypes CYP1A2, 2C9, 2C19, 2D6 and 3A4 in human liver microsomes. The mixed human liver microsomes used in this assay were purchased from Corning (USA). The test compounds were co-incubated at 7 concentrations with human liver microsomes and five probe substrates (phenacetin for CYP1a2, diclofenac for CYP2C9, mephenytoin for CYP2C19, dextromethorphan for CYP2D6, midazolam for CYP3A4-M, mixed). The reaction was initiated by adding coenzyme NADPH, and terminated by adding acetonitrile containing internal standard. After the proteins were precipitated, the supernatant was centrifuged. The characteristic metabolites in the supernatant (acetaminophen for CYP1A2, 4-hydroxydiclofenac for CYP2C9, 4-hydroxymephenytoin for CYP2C19, dextrorphan for CYP2D6, 1-hydroxymidazolam for CYP3A4-M) were analyzed by LC-MS/MS. The influence of the test compounds on production of the characteristic metabolites was finally analyzed on the basis of the data obtained. A selective inhibitor (ketoconazole for CYP3A4-M) was used as positive control. All samples were tested in duplicate.

CYP2C19 = target: T2, CYP2C19 (Homo sapiens, UniProt P33261); experiment: CYP450 inhibition in human liver microsomes, CYP2C19; assay type: in vitro ADME; conditions: human liver microsomes, probe mephenytoin; read-out: IC50, subtype 2C19
T2 construct: tissue Corning (USA); host or cells: mixed human liver microsomes
Method: as §1

[3] = 1 mg/kg, intravenous injection, 1 mpk, 5% DMSO + 15% Solutol + 80% Saline
[4] = 1 mg/kg, intravenous injection, 1 mpk
[5] = 5 mg/kg, oral administration, 5 mpk, 15% solutol HS15 + 85% PBS
[6] = 2 mg/kg, oral administration, 2 mpk, 5% DMSO + 15% Solutol + 80% Saline

T2 sequence (P33261 whole entry): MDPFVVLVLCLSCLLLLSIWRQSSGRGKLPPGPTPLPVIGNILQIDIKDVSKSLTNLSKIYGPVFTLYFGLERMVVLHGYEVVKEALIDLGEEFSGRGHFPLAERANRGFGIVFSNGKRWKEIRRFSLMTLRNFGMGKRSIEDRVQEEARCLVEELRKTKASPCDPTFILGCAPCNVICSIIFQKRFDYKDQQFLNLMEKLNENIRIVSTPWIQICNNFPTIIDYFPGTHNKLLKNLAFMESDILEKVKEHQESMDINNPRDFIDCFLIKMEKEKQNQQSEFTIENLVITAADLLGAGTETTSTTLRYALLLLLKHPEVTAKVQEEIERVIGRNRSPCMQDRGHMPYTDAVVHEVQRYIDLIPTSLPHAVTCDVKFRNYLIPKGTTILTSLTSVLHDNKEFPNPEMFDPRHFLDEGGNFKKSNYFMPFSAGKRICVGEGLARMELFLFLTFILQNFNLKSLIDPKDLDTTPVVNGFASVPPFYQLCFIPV

Row | Structure (SMILES) | IC50 [1] [nM] | Cmax [2, 3] [ng/mL] | AUC(0-t) [2, 4] [ng·h/mL] | AUC(0-inf) [2, 4] [ng·h/mL] | MRT [2, 4] [h] | clearance [2, 4] [mL/min/kg] | half-life [2, 4] [h] | Vd [2, 4] [L/kg] | AUC(0-t) [2, 5] [ng·h/mL] | AUC(0-inf) [2, 5] [ng·h/mL] | MRT [2, 5] [h] | bioavailability [2, 5] [%] | half-life [2, 5] [h] | Cmax [2, 5] [ng/mL] | Tmax [2, 5] [h] | IC50 (CYP1A2) [µM] | IC50 (CYP2C19) [µM] | further results
1 | CN(C)c1cc2nn([C@H]3CC[C@H](O)CC3)cc2cc1NC(=O)c1cccc(C(F)(F)F)n1 [MY-004-153] | 191 |  |  |  |  |  |  |  |  |  |  |  |  |  |  |  |  | 
2 | COc1cc2nn([C@H]3CC[C@@](C)(O)CC3)cc2cc1NC(=O)c1cccc(C(F)(F)F)n1 [MY-004-126-2] |  | 1430 | 4080 | 4540 | 8.81 | 3.74 | 7.59 | 2.4 | 15400 | 35900 | 10.3 | 75.8 | 24.8 | 1150 | 4 |  |  | 
3 | COc1cc2nn([C@H]3CC[C@](C)(O)CC3)cc2cc1NC(=O)c1cccc(C(F)(F)F)n1 [MY-004-126-1] | 71.8 | 1210 | 3150 | 3250 | 5.46 | 5.14 | 5.25 | 2.34 | 11500 | 17700 | 22.4 | 73.1 | 15.2 | 924 | 4 | > 30 | > 30 | 
4 | CN(C)c1cc2nn([C@H]3C[C@H](C(C)(C)O)C3)cc2cc1NC(=O)c1cccc(C(F)(F)F)n1 [MY-004-089] | 165 | 1580 | 3390 | 3510 | 5.2 | 4.89 | 5.5 | 2.26 |  |  |  |  |  |  |  |  |  | AUC(0-t) [2, 6]: 3000 ng·h/mL; AUC(0-inf) [2, 6]: 3550 ng·h/mL; MRT [2, 6]: 12.6 h; bioavailability [2, 6]: 44.2%; half-life [2, 6]: 8.11 h; Cmax [2, 6]: 227 ng/mL; Tmax [2, 6]: 4 h
5 | COc1cc2nn([C@H]3CC[C@H](O)CC3)cc2cc1NC(=O)c1cccc(C(F)(F)F)n1 [MY-004-127-1] |  | 1420 | 5530 | 5880 | 7.54 | 2.84 | 6.29 | 1.55 | 18400 | 22500 | 9.16 | 66.5 | 8.84 | 1480 | 4.67 | > 30 | > 30 | 
6 | CC(C)(O)c1cc2nn([C@H]3CC[C@](C)(O)CC3)cc2cc1NC(=O)c1cccc(C(C)(F)F)n1 [MY-004-165] |  |  |  |  |  |  |  |  |  |  |  |  |  |  |  | > 30 | > 30 | 
